Experiments:
[1] = Stability of the radiolabeled product; type: physicochemical; conditions: alkylene chain length 0, after purification
FAPα/A549 cells = test: Uptake of 211At-labeled FAPI derivatives into A549 and FAPα/A549 cells; type: cell-based, human; conditions: for uptake level in dependence on FAPα expression: A549 (low FAPα) vs FAPα/A549 (high FAPα), 30 min; for competitive inhibition by addition of the corresponding unlabeled form: A549 / FAPα/A549 cells
Source text: (§1) Human non-small cell lung cancer cell lines (A549), human triple-negative (estrogen and progesterone receptors which are hormone receptors, as well as HER2 protein, are all absent) breast cancer cell lines (MDA-MB-231), and A549 cells and MDA-MB-231 cells, each transfected with the human fibroblast activation protein (FAPα) gene (FAPα/A549, FAPα/MDA-MB-231) were used in the experiments as cancer cells with low FAPα expression and cancer cells with high FAPα expression (mimic after high-order histogenesis), respectively. For each type, the cells were seeded in a 24-well plate at 2×10^4 cells per well and cultured for 2 days. An appropriate amount of two ^211At-labeled FAPI derivatives (PIP(1,H) […], PIP-amide(1,H) (Example 14)) were added to each type of the above cells, respectively, and cultured for 30 min. The supernatant was removed by aspiration, and the cells were washed with PBS(−), and then 0.1N sodium hydroxide solution was added to lyse the cells, and the intracellular radioactivity was measured by a gamma counter. The radioactivity count was corrected per unit protein amount (counts/μg protein). […] Considering that the uptake level into human embryonic kidney-derived cells (HEK293) was about 20 counts/μg protein at most, based on the results of PIP(1,F) and the like in Experimental Example 1, it can be said that cancer cells take up more FAPI derivatives than non-cancer cells.

FAPα/MDA-MB-231 cells = test: Uptake of 211At-labeled FAPI derivatives into MDA-MB-231 and FAPα/MDA-MB-231 cells; type: cell-based, human; conditions: for uptake level in dependence on FAPα expression: MDA-MB-231 (low FAPα) vs FAPα/MDA-MB-231 (high FAPα), 30 min; for competitive inhibition by addition of the corresponding unlabeled form: MDA-MB-231 / FAPα/MDA-MB-231 cells
Source text: as §1

[2] = system: Human pancreatic cancer cells (PANC-1); test: Inhibitory effect on tumor growth in human pancreatic cancer-transplanted mice; type: in vivo, nude mice; conditions: PANC-1 subcutaneous, intravenous 1 MBq per mouse, N=4, three weeks, vs saline control
Method: (§2) Human pancreatic cancer cells (PANC-1) were subcutaneously administered at 1×10^7 cells to nude mice (male, 6-weeks old) to generate pancreatic cancer-transplanted mice. The mice were intravenously injected with ^211At(C1)-Pip-6Qui-FAPI(H) (PIP(1,H), Example 2) or 211At(C1)-PEG2-6Qui-FAPI(H) (PEG(1,H), Example 6) at 1 MBq per mouse (N=4). Physiological saline was administered to the control group (Control (Saline)) (N=4).

[3] = system: FAPα/293 cells (293 cells transfected with the human fibroblast activation protein (FAPα) gene); test: Uptake of 211At-labeled FAPI derivatives into FAPα/293 cells; type: cell-based; conditions: cultured 30 min, gamma counter, rank order of the three highest of eight derivatives
Method: Human embryonic kidney 293 cells (HEK293), and 293 cells transfected with the human fibroblast activation protein (FAPα) gene (FAPα/293) were used in the experiment as FAPα-negative and FAPα-positive cells, respectively. For each type, the cells were seeded in a 24-well plate at 2×10^4 cells per well and cultured for 2 days. An appropriate amount of eight ^211At-labeled FAPI derivatives (Gly(1,F) (Example 8), PEG(1,F) (Example 5), PIP(1,F) (Example 1), PIP(1,H)-8Qui (Example 3), Ac-PIP (Example 13), PEG4(1,H) (Example 7), GlcN-PEG(1,F) (Example 11), PEG(1,H) (Example 6)) were added to each type of the above cells, respectively, and cultured for 30 min. The supernatant was removed by aspiration, and then 0.1N sodium hydroxide solution was added to lyse the cells, and the intracellular radioactivity was measured by a gamma counter. The radioactivity count was corrected per unit protein amount (counts/μg protein). The three compounds with the highest uptake levels into FAPα-positive cells were PIP(1,F)>PIP(1,H)-8Qui>PEG(1,H), in order of […] level.

[4] = Changes in body weight of human pancreatic cancer-transplanted mice; type: in vivo, nude mice; conditions: intravenous 1 MBq per mouse, N=4, three weeks, vs saline control
Method: as §2

Row | SMILES | stability of the product [1] | uptake level in dependence on FAPα expression (FAPα/A549 cells) | competitive inhibition by addition of the corresponding unlabeled form (FAPα/A549 cells) | uptake level in dependence on FAPα expression (FAPα/MDA-MB-231 cells) | competitive inhibition by addition of the corresponding unlabeled form (FAPα/MDA-MB-231 cells) | inhibitory effect on tumor growth (tumor size) [2] | uptake levels into FAPα-positive cells (intracellular radioactivity) [3] | changes in body weight [4] | also measured
1 | N#C[C@@H]1CC(F)(F)CN1C(=O)CNC(=O)c1ccnc2ccc(OCCCN3CCN(C(=O)CCCO[C@@H]4OC(CO)[C@@H](O)C(O)[C@@H]4NC(=O)c4ccc([211At])cc4)CC3)cc12 (stereo partly drawn) [Example 9, ^211At(CO)-GlcN-Pip-6Qui-FAPI(F)] | low |  |  |  |  |  |  |  | 
2 | N#C[C@@H]1CCCN1C(=O)CNC(=O)c1ccnc2ccc(OCCC(=O)N3CCN(C(=O)Cc4ccc([211At])cc4)CC3)cc12 [Example 14, ^211At(C1)-Pip-amido-6Qui-FAPI(H)] |  | uptake level increased as FAPα expression increased | could be suppressed to a low level | uptake level increased as FAPα expression increased | could be suppressed to a low level |  |  |  | 
3 | N#C[C@@H]1CCCN1C(=O)CNC(=O)c1ccnc2ccc(OCCOCCNC(=O)Cc3ccc([211At])cc3)cc12 [Example 6, ^211At(C1)-PEG2-6Qui-FAPI(H)] |  |  |  |  |  | superior inhibitory effects on tumor growth compared to the control group | PIP(1,F)>PIP(1,H)-8Qui>PEG(1,H) | comparable to that of the control group | 
4 | N#C[C@@H]1CCCN1C(=O)CNC(=O)c1ccnc2ccc(OCCCN3CCN(C(=O)Cc4ccc([211At])cc4)CC3)cc12 [Example 2, ^211At(C1)-Pip-6Qui-FAPI(H)] |  | uptake level increased as FAPα expression increased | could be suppressed to a low level | uptake level increased as FAPα expression increased | could be suppressed to a low level | superior inhibitory effects on tumor growth compared to the control group |  | comparable to that of the control group | uptake level (intracellular radioactivity), comparison between derivatives (FAPα/A549 cells; A549 and FAPα/A549 cells, cultured 30 min): slightly higher than that of PIP-amide(1,H); uptake level (intracellular radioactivity), comparison between derivatives (FAPα/MDA-MB-231 cells; MDA-MB-231 and FAPα/MDA-MB-231 cells, cultured 30 min): slightly higher than that of PIP-amide(1,H)
5 | N#C[C@@H]1CCCN1C(=O)CNC(=O)c1ccnc2c(OCCCN3CCN(C(=O)Cc4ccc([211At])cc4)CC3)cccc12 [Example 3, ^211At(C1)-Pip-8Qui-FAPI(H)] |  |  |  |  |  |  | PIP(1,F)>PIP(1,H)-8Qui>PEG(1,H) |  | 
6 | N#C[C@@H]1CCCN1C(=O)CNC(=O)c1ccnc2ccc(OCCCN3CCN(C(=O)CCCO[C@@H]4OC(CO)[C@@H](O)C(O)[C@@H]4NC(=O)c4ccc([211At])cc4)CC3)cc12 (stereo partly drawn) [Example 10, ^211At(C0)-GlcN-Pip-6Qui-FAPI(H)] | low |  |  |  |  |  |  |  | 
